Experiments:
Assay type in all cases: in vivo
[1] = test system: C57BL/KsJ-db/db Jcl mice (model animals of Type II diabetes mellitus); experiment: Test Example 1: serum insulin in glucose tolerance test after 7-day oral dosing
Description: Male 9-week-old C57BL/KsJ-db/db Jcl (abbreviated as “db/db” hereinafter) mice (Clea Japan, Inc.), which are model animals of Type II diabetes mellitus, were divided in groups each consisting of 6 mice, and fed a commercially available feed CE-2 (Clea Japan, Inc.) for one week, so as to accustom the animals to the environment.
After acclimation, an aqueous 10% solution of 2′-fucosyllactose (sometimes abbreviated as “2′-FL” hereinafter) was orally administered to the mice at 200 mg (2′-FL)/kg body weight in the morning and at 300 mg (2′-FL) /kg body weight in the evening. The same volume of Saline was administered to the control group. The aqueous 2′-FL solution and the saline were both dosed daily to the mice for 7 days.
During the dosing period, CE-2 was-given together with drinking water ad libitum.
After 18-hour starvation from the final dosing on day 7, an aqueous 40% glucose solution was orally administered to 2 g (glucose)/kg body weight to the mice, to perform glucose tolerance test. Zero minute and 30 minutes after glucose loading, blood was taken from tail vein. […] Blood was centrifuged (4° C., 10000 rpm, 10 minutes), to obtain serum.
Insulin in the serum recovered was assayed by enzyme immunoassay using Lebis Insulin kit (for rats-T) (Shibayagi, Co., Ltd.) as follows. The kit reacts with insulin in the sera of both rats and mice.
First, the serum recovered was diluted with the buffer attached to the kit to 5 fold. 10 μl of the diluted serum was taken and divided in the wells of the antibody-immobilized plate into which 100 μl of a biotin-bound anti-insulin antibody was added, for reaction at ambient temperature for 2 hours. After the reaction, the plate was rinsed four times with the rinse solution attached to the kit. After rinsing, 100 μl of the peroxidase-avidin bound material was divided in the wells, for reaction at ambient temperature for 30 minutes. After reaction, the plate was rinsed four times with the rinse solution. After rinsing, 100 μl of the chromogenic solution was divided in the wells, for chromogenic reaction for 30 minutes, followed by addition of 100 μl of the reaction termination solution to each well. The absorbance of the reaction solution in the wells at 450 nm was read with a plate reader.
Herein, a standard curve was prepared by using the 200 ng/ml standard insulin solution (rat) attached to the kit as a standard solution to dilute the standard solution appropriately with the buffer solution attached to the kit for the same reaction as for the serum, and plotting the relation between the concentration and the absorbance (450 nm).
Based on the prepared standard curve and the absorbance from the reaction with the serum, the insulin concentration in the serum was determined.

ICR mice [2] = experiment: Test Example 2: serum insulin in glucose tolerance test after 7-day oral dosing, normal mice
Description: Eleven male 9-week-old ICR mice as normal mice (SLC, Inc.) were fed a commercially available CE-2 (Clea Japan, Inc.) for one week, so as to accustom the mice to the environment.
After acclimation, an aqueous 10% solution of 2′-fucosyllactose was orally administered to the mice at 200 mg (2′-FL)/kg body weight in the morning and at 300 mg (2′-FL)/kg body weight in the evening. The same volume of saline was administered to the control group. The aqueous 2′-FL solution and saline were both dosed daily to the mice for 7 days.
During the dosing period, CE-2 was given together with drinking water ad libitum. […]
After the reaction, the plate was rinsed four times with the rinse solution. […] The absorbance of the reaction solution in the wells at 450 nm was read with a plate reader. Herein, a standard curve was prepared by using the standard insulin solution (mice, 200 ng/ml) attached to the kit as a standard solution to dilute the standard solution appropriately with the buffer solution attached to the kit for the same reaction as for the serum, and plotting the relation between the concentration and the absorbance (450 nm). Based on the prepared standard curve and the absorbance from the reaction with the serum, the insulin concentration in the serum was determined.

ICR mice [3] = experiment: Test Example 7: serum insulin after intravenous 2′-FL dosing without glucose loading
Description: Groups of male 9-week-old ICR mice (Japan SLC, Inc.) each consisting of 7 mice were fed a commercially available CE-2 (Clea Japan, Inc.) for one week, so as to accustom the mice to the environment. Thereafter, an aqueous 1% solution of 2′-FL was intravenously administered to the mice to 50 mg (2′-FL)/kg body weight. The same volume of saline was administered to the control group. Zero minute and 30 minutes after dosing, blood was taken from a tail vein. […] Blood was centrifuged (4° C., 10000 rpm, 10 minutes), to obtain serum.
Insulin in the serum recovered was assayed by enzyme immunoassay using Lebis Insulin kit (for mice-T) (Shibayagi, Co., Ltd.) in the same manner as in the Test Example 2.

[4] = oral 200 + 300 mg/kg daily, 7 days, glucose 2 g/kg oral, 120 minutes, mean ± SD

Question: What does the source list for 2′-fucosyllactose [2′-FL]?
Answer: insulin concentration after glucose loading compared with the control group (in words) ([1]; continuous daily oral dosing): increased; Serum insulin concentration after glucose loading, Zero minute ([1]; oral 200 mg/kg morning + 300 mg/kg evening, 7 days, 18-hour starvation, glucose 2 g/kg oral, zero minute, mean ± SD): 6.7 ± 3.3 ng/mL; Serum insulin concentration after glucose loading, 30 minutes ([1]; oral 200 + 300 mg/kg daily, 7 days, glucose 2 g/kg oral, 30 minutes, mean ± SD): 8.3 ± 3.9 ng/mL; Serum insulin concentration after glucose loading, 120 minutes [1, 4]: 26.1 ± 12.8 ng/mL; insulin concentration 120 minutes after glucose loading compared with the control group (in words) (ICR mice [2]; continuous daily oral dosing): increased; Serum insulin concentration after glucose loading, 120 minutes (ICR mice [2]; [4]): 0.35 ± 0.24 ng/mL; Serum insulin concentration after 2′-FL dosing, 30 minutes (ICR mice [3]; 50 mg/kg intravenous, no glucose loading, 30 minutes after dosing, mean ± SD): 168.6 ± 40.2 pg/mL; Serum insulin concentration after 2′-FL dosing, 120 minutes (ICR mice [3]; 50 mg/kg intravenous, no glucose loading, 120 minutes after dosing, mean ± SD): 2035.9 ± 1098.0 pg/mL; serum insulin concentration compared with the control group (in words) (ICR mice [3]; intravenous 2′-FL dosing): increased
